≈ marks a conversion by molar mass, not a printed value. Read-outs that look alike come from different tables or passages of the source.
Tests used:
[1] = system: cAMP phosphodiesterase (human platelets); assay: Inhibition of Cyclic AMP Phosphodiesterase; assay type: biochemical; details: PDE from human platelets
Protocol: Inhibition of Cyclic AMP Phosphodiesterase
This assay is carried out essentially as described by Thompson, et al., Methods in Enzymology, 38, 205-212 (1974). Briefly, tritium labeled cyclic adenosine monophosphate (cAMP) is incubated with a phosphodiesterase (PDE) enzynme obtained from human platelets which converts a portion of the cAMP to 5'AMP in culture tubes. This reaction is terminated by submerging the tubes in a boiling water bath after which they are placed on ice and an aliquot of snake venom is added to each tube. This, during a second incubation, converts the 5'AMP to adenosine. Ion exchange resin is added to bind the remaining cyclic AMP. The tubes are centrifuged to sediment the resin and a portion of the clear supernatent (which contains radioactive adenosine) is counted in a liquid scintillation counter. The cAMP phosphodiesterase inhibition activity of a test agent is determined by pre-incubating the PDE enzyme preparation with the test agent.

[2] = system: platelet rich plasma (ADP and collagen-induced platelet aggregation); assay: In Vitro Inhibition of Platelet Aggregation (aggregometer method of Born, ADP- or collagen-induced); assay type: cell-based; details: Oryctolagus cuniculus, rabbit PRP
Description: In Vitro Inhibition of Platelet Aggregation
The aggregometer method of Born (1), as modified by Mustard, et al. (2) was used to assess the in vitro activity of the various compounds as to inhibition of adenosine diphosphate (ADP) and collagen-induced platelet aggregation. Platelet rich plasma (PRP) was separated by centrifugation from citrated (3.8 percent) rabbit blood. […] The various compounds tested were dissovled in dimethylsulfoxide (DMSO) so that 5 mcl added to the platelet rich plasma would yield the desired test concentration. Vehicle control trials were done and compared with aggregation induced in platelet rich plasma containing various concentrations of the test compounds. Dose response curves were obtained and Effective Concentration (EC50) values calculated.

[3] = system: platelet rich plasma (induced aggregation); assay: Inhibition of Platelet Aggregation Following Oral Administration (Ex vivo method); assay type: in vivo; details: Rattus norvegicus, rats, oral (gavage), 2 hours after dosing, vs. ADP
Protocol: Inhibition of Platelet Aggregation Following Oral Administration
This test is sometimes referred to in the art as an Ex vivo method and was initially described by Fleming, et al., Arch. Int. Pharmacodyn. Ther., 199, 164 (1972). Briefly, the assay is essentially carried out as follows.
Aggregometry is performed in vitro as previously described on platelet rich plasma samples obtained from rats dosed with either test compounds or the vehicle. In all cases, activity is determined 2 hours after the drug is administered orally at various doses by gavage as a suspension in […] plus a few drops of Tween 20.

ferrets = assay: Ferret In Vivo Inotropic Activity; details: anesthetized ferrets, monitored 60 minutes; for Maximum Percentage Change, Right Ventricular Contractile Force: percent change from predose control
Protocol: In Vivo Inotropic Activity This test is carried out in ferrets as follows. Fasted anesthetized ferrets are instrumented to study hemodynamic parameters as well as right ventricular contractile force (RVCF) using a Walton-Brodie open strain guage arch. Drugs are administered intraduodenally as solutions in DMSO (1 mL or less) and effects on myocardial contractile force and other parameters are monitored for 60 minutes after dosing. Changes in contractile force in response to drug treatment are expressed in terms of percent change from predose control.

[4] = vs. ADP (0.5 mcg/ml), read-out: Platelet Inhibition In Vitro - Rabbit PRP EC50 vs. ADP
[5] = vs. collagen, read-out: Platelet Inhibition In Vitro - Rabbit PRP EC50 vs. collagen

| SMILES | IC50 [1] [nM] | EC50 [2, 4] [µg/mL] | EC50 [2, 5] [µg/mL] | also measured |
| --- | --- | --- | --- | --- |
| O=c1[nH]c2cc3cc(N4CCOCC4)ccc3nc2[nH]1 [Example 10, 1,3-Dihydro-7-(4-morpholinyl)-2H-imidazo[4,5-b]quinolin-2-one] | 20 | 0.03 (≈ 0.111 µM) | 0.02 (≈ 0.074 µM) |  |
| O=C(Nc1ccc2nc3[nH]c(=O)[nH]c3cc2c1)c1ccccc1 [Example 6, N-(2,3-Dihydro-2-oxo-1H-imidazo[4,5-b]quinolin-7-yl)benzamide] | 200 |  |  | ED50 [3]: 5.6 mg/kg; Maximum Percentage Change, Blood Pressure (ferrets; 3 mg/kg intraduodenal): -8 ± 6%; Maximum Percentage Change, Right Ventricular Contractile Force (ferrets; 3 mg/kg intraduodenal): 9 ± 4% |
| CCN(CC)c1ccc2nc3[nH]c(=O)[nH]c3cc2c1 [Example 9, 7-(Diethylamino)-1,3-dihydro-2H-imidazo[4,5-b]quinolin-2-one] |  | 0.3 (≈ 1.17 µM) |  |  |
| O=c1[nH]c2cc3cc(N4CCN(c5ccccc5)CC4)ccc3nc2[nH]1 [Example 16, 1,3-Dihydro-7-(4-phenyl-1-piperazinyl)-2H-imidazo[4,5-b]quinolin-2-one] |  | 0.12 (≈ 0.347 µM) | 0.025 (≈ 0.0724 µM) |  |
| Cc1[nH]c(=O)c(C#N)cc1-c1ccncc1 [milrinone, reference compound] |  |  |  | Maximum Percentage Change, Right Ventricular Contractile Force (ferrets; 3 mg/kg intraduodenal): 52% |
| OCCN(CCO)c1nc(N2CCCCC2)c2nc(N(CCO)CCO)nc(N3CCCCC3)c2n1 [dipyridamole, reference compound] |  | […] | […] | ED50 [3]: > 100 mg/kg |
| Nc1ccc2nc3[nH]c(=O)[nH]c3cc2c1 [Example 5, 7-Amino-1,3-dihydro-2H-imidazo[4,5-b]quinolin-2-one] |  |  | 0.4 (≈ 2 µM) |  |
| CC(=O)Nc1ccc2nc3[nH]c(=O)[nH]c3cc2c1 [Example 4, N-(2,3-Dihydro-2-oxo-1H-imidazo[4,5-b]quinolin-7-yl)acetamide] | 700 | 2 (≈ 8.26 µM) | 0.8 (≈ 3.3 µM) |  |
| COC(=O)C1CCN(c2ccc3nc4[nH]c(=O)[nH]c4cc3c2)CC1 [Example 11, Methyl 1-(2,3-Dihydro-2-oxo-1H-imidazo[4,5-b]quinolin-7-yl)-4-piperidinecarboxylate] |  | 0.04 (≈ 0.123 µM) | 0.012 (≈ 0.0368 µM) |  |
| O=C(c1ccccc1)N1CCN(c2ccc3nc4[nH]c(=O)[nH]c4cc3c2)CC1 [Example 14, 1-Benzoyl-4-(2,3-dihydro-2-oxo-1H-imidazo[4,5-b]quinolin-7-yl)piperazine] | 600 | 0.125 (≈ 0.335 µM) |  |  |
| O=C(O)C1CCN(c2ccc3nc4[nH]c(=O)[nH]c4cc3c2)CC1 [Example 12, 1-(2,3-Dihydro-2-oxo-1H-imidazo[4,5-b]quinolin-7-yl)-4-piperidinecarboxylicAcid] | 20 | 3.5 (≈ 11.2 µM) | 3 (≈ 9.61 µM) |  |
| O=c1[nH]c2cc3cc(N4CCCC4)ccc3nc2[nH]1 [Example 8, 1,3-Dihydro-7-(1-pyrrolidinyl)-2H-imidazo-[4,5-b]quinolin-2-one] |  |  | 0.4 (≈ 1.57 µM) |  |
| CCOC(=O)N1CCN(c2ccc3nc4[nH]c(=O)[nH]c4cc3c2)CC1 [Example 13, Ethyl 4-(2,3-Dihydro-2-oxo-1H-imidazo[4,5-b]quinolin-7-yl)-1-piperazinecarboxylate] | 700 |  | 0.17 (≈ 0.498 µM) |  |
| COc1ccc(C(=O)N2CCN(c3ccc4nc5[nH]c(=O)[nH]c5cc4c3)CC2)cc1OC [Example 15, 1-(2,3-Dihydro-2-oxo-1H-imidazo[4,5-b]quinolin-7-yl)-4-(3,4-dimethoxybenzoyl)piperazine] |  | 3 (≈ 6.92 µM) | 2 (≈ 4.61 µM) |  |
| O=c1[nH]c2cc3cc(N4CCCCC4)ccc3nc2[nH]1 [Example 7, 1,3-Dihydro-7-(1-piperidinyl)-2H-imidazo[4,5-b]quinolin-2-one] |  | 1 (≈ 3.73 µM) |  | ED50 [3]: 20 mg/kg; Maximum Percentage Change, Blood Pressure (ferrets; 0.3 mg/kg intraduodenal): -21 ± 5%; Maximum Percentage Change, Right Ventricular Contractile Force (ferrets; 0.3 mg/kg intraduodenal): 14 ± 12%; Maximum Percentage Change, Blood Pressure (ferrets; 3 mg/kg intraduodenal): -39 ± 3%; Maximum Percentage Change, Right Ventricular Contractile Force (ferrets; 3 mg/kg intraduodenal): 22 ± 8% |
| CN(C(=O)C1CCN(c2ccc3nc4[nH]c(=O)[nH]c4cc3c2)CC1)C1CCCCC1 [Example 17, N-Cyclohexyl-1-(2,3-dihydro-2-oxo-1H-imidazo[4,5-b]quinolin-7-yl)-N-methyl-4-piperidinecarboxamide] |  | 1.5 (≈ 3.68 µM) | 0.75 (≈ 1.84 µM) |  |

— US4701459A, “7-amino-1,3-dihydro-2H-imidazo[4,5-b]quinolin 2-ones and method for inhibiting phosphodiesterase and blood platelet aggregation” (Bristol-Myers Company, priority 1986, dated 1987)
